Data: patent US12139717B2, “Improving plant regeneration” (KWS SAAT SE & Co. KGaA, priority 2019, dated 2024)
“Also recorded” adds a separate entry of the source.

How the values were obtained:
sugar beet callus = assay: Agrobacteria-mediated transformation of HP induced sugar beet callus; assay type: cell-based; settings: recalcitrant genotype; 70s::tDT construct; seven days after infection
Protocol: a. Sugar beet calli were induced as described in steps 1 and 2.
b. Friable calli were mounted in medium containing MS salts, 30 g/l sucrose, 1 mg/l GA3 and 1 mg/l Thidiazuron (TDZ), and kept for 1 week in the dark, 24° C.
c. Agrobacterium AGL-1 harbouring the vector pZFN-nptII-70s::AtGRF5 and pZFN-nptII-70s::tDT was grown in medium (5 g/l tryptone+2.5 g/l yeast extract+1 g/l NaCl+5 g/l mannitol+0.1 g/l MgSO4×7H2O+0.25 g/l KH2PO4+1 g/l glutamic acid, pH 7.0) supplemented with the appropriate antibiotics, at 28° C., for 24 h.
d. Calli were inoculated with Agrobacterium suspension (medium: 440 mg/l CaCl2×2H2O+170 mg/l KH2PO4+1.9 g/l KNO3+180.7 mg/l MgSO4+1.65 g/l NH4NO3+2 mg/l BAP+40 μg/l Acetosyringone+20 g/l sucrose+2 g/l glucose, pH 6.0) at an OD600 of 0.8. The callus tissue and the Agrobacterium were incubated in medium comprising 440 mg/l CaCl2×2H2O, 170 mg/l KH2PO4, 1.9 g/l KNO3, 180.7 mg/l MgSO4, 1.65 g/l NH4NO3, 2 mg/l BAP, 40 μg/l Acetosyringone, 20 g/l sucrose and 2 g/l glucose, at 21° C. for 3 days in the dark.
e. Calli were sub-cultured to medium comprising MS salts, 30 g/l sucrose, 1 mg/l GA3, 1 mg/l TDZ and 500 mg/l Timentin, and incubated in the dark, at 24° C. for 1 week.
f. […]

Arabidopsis thaliana = settings: Poretska et al. 2016; cited from earlier work
sugar beet leaf explants = assay: Sugar beet callus induction from leaf explants in callus induction medium; assay type: cell-based; parameters: key to Callus induction effect: −: no callus induction effect; +: modest callus induction effect; ++: strong callus induction effect; settings: for callus induction in recalcitrant genotype A (FIG. 3): DMSO control
Protocol: 1. Micropropagated shoots of various proprietary genotypes were used as starting material: Genotypes A and B are recalcitrant to callus induction and plant regeneration. […] Therefore, such calli were never transformable.
Genotype C is less recalcitrant. Shoots were multiplied in MS salts+30 g/l sucrose and 0.25 mg/l benzyladenine (BAP).
2. To induce friable callus, leaf explants were isolated from micropropagated shoots and incubated in callus induction medium (CIM) containing MS salts including 15 g/I sucrose and 2 mg/l BAP at 28° C. for 7 to 8 weeks. […] HP is Hyperphyllin, a small molecule with the chemical formula N-[4-Amino-2-chlorophenyl]-2,4-dichlorobenzamide (CAS #: 42480-64-8).
After incubation period the induction and formation of callus has been analysed. […] There is no significant difference in induction efficiency between these two concentrations.

sugar beet friable calli = assay: Sugar beet shoot induction and plant regeneration from induced calli; assay type: cell-based; settings: calli induced with vs without HP
Protocol: 3. Friable calli of step 2 were harvested from the induction and transferred to the shoot induction medium containing MS salts, 30 g/l sucrose, 1 mg/l GA3 and 1 mg/l Thidiazuron (TDZ). The calli were incubated at 24° C. in the light/dark cycle (16 h/8 h) for 1 to 2 weeks. 4. Regenerated shoots were mounted and cultured in the medium of step 1. The plants are grown at 24° C. in the light/dark cycle (16 h/8 h).

Compound	Agrobacterium infection of HP induced callus (FIG. 7) (sugar beet callus)	leaf formation rate (Arabidopsis thaliana)	callus inducing effect (in words) (sugar beet leaf explants; 10 μM)	Callus induction effect (sugar beet leaf explants; 10 μM dissolved in 2 ml/L DMSO)	callus inducing effect (in words) (sugar beet leaf explants; 30 μM)	Callus induction effect (sugar beet leaf explants; 30 μM dissolved in 2 ml/L DMSO)	amount of callus tissue induced from leaves (FIG. 5) (sugar beet leaf explants; 30 μM vs control without HP)	callus induction in recalcitrant genotype A (FIG. 3) (sugar beet leaf explants; 30 μM)	callus inducing effect (in words) (sugar beet leaf explants; 50 μM)	Callus induction effect (sugar beet leaf explants; 50 μM dissolved in 2 ml/L DMSO)	callus induction in recalcitrant genotype A (FIG. 3) (sugar beet leaf explants; 50 μM)	callus inducing effect (in words) (sugar beet leaf explants; 100 μM)	Callus induction effect (sugar beet leaf explants; 100 μM dissolved in 2 ml/L DMSO)	Callus induction effect (sugar beet leaf explants; 500 μM dissolved in 2 ml/L DMSO)	Callus induction effect (sugar beet leaf explants; 1 mM dissolved in 2 ml/L DMSO)	callus inducing effect (in words) (sugar beet leaf explants; higher concentration (500 μM, 1 mM))	callus induction efficiency with vs without HP (FIG. 4) (sugar beet leaf explants; recalcitrant genotypes A and B)	plants regenerated from induced callus (FIG. 6) (sugar beet friable calli)	callus induction in recalcitrant genotype (FIG. 9) (sugar beet leaf explants; 50 μM as printed in legend, control without HP treatment)
Nc1ccc(NC(=O)c2ccc(Cl)cc2Cl)c(Cl)c1 [HP, N-[4-Amino-2-chlorophenyl]-2,4-dichlorobenzamide]	can be infected by agrobacteria	enhance leaf formation rate	modest effect	+	strong callus inducing effect	++	much more amount of callus tissue	dramatically promotes callus induction; also recorded: promotes callus formation	strong callus inducing effect	++	promotes callus formation	modest effect	+	−	−	no effect	boosting effect	More plants could be regenerated	
O=C(Nc1ccccc1)c1ccccc1Cl [HP derivate A3]		enhance leaf formation rate																	
O=C(Nc1ccccc1)c1c(F)cccc1Cl [HP derivate A2]		enhance leaf formation rate			strong callus-inducing effect	++			weak effect	+									promotes callus induction
O=C(Nc1c(F)cccc1F)c1ccc(Cl)cc1 [HP derivate A1]		enhance leaf formation rate			worked	+				−									
